Experimental data as given in patent publication US10980853B2, “Process for preparing a crassocephalum crepidioides extract, extract prepared thereby and use of the extract” (DEVELOPMENT CENTER FOR BIOTECHNOLOGY, priority 2015, dated 2021).
Converted amounts (≈) assume the structure as drawn.

How the values were obtained:
[1] = tested on: MKN45 cells; assay: Inhibition of the growth of MKN45 cancer cells (MTS assay); format: cell-based
Method: (§1) MKN45 cells were incubated in RPMI-1640 medium (Sigma-Aldrich) containing 5% FBS (Gibco®). 6×10^3 cells were added to each well of a 96-well plate. Each well contained 180 μL of the above medium. The plate was incubated at 37° C. for 4 hours, and then 20 μL of various concentrations of each of the raw extract, Cr-E03 and dLGG were added to each well of the plate. Each concentration was tested with 3 replicates. After further incubation at 37° C. for 48 hours, the medium in the wells was removed, and 180 μL of 5% FBS medium containing 3-(4,5-dimethylthiazol-2-yl)-5-(3-carboxymethoxyphenyl)-2-(4-sulfophenyl)-2H-tetrazolium (MTS) were added to the wells. After reaction at 37° C. for 1 hour, the absorption values at 490 nm of the wells were measured by ELISA Reader (Model 680 Microplate Reader, Bio-Rad). IC25, IC50 and IC75 values of the raw extract, Cr-E03 and dLGG, respectively, were obtained by calculation using GraphPad Prism 5 software (GraphPad Software, Inc). IC25, IC50 and IC75 values are defined as the concentrations of the test sample which achieve 25%, 50% and 75%, respectively, of the maximal inhibition of the growth of MKN45 cells.

[2] = tested on: MKN45 cells; assay: Combination with 5-FU or epirubicin in the inhibition of the growth of MKN45 cancer cells (combination index); format: cell-based; conditions: CI<1 synergism, CI=1 addition, CI>1 antagonism
Method: as §1
Combinations of different concentrations of each of the raw extract, Cr-E03 and dLGG with different concentrations of each of 5-fluorouracil (5-FU) and epirubicin were prepared. […]

CC/C=C\C/C=C\C/C=C\CCCCCCCC(=O)OC[C@H](CO[C@@H]1O[C@H](CO)[C@H](O)[C@H](O)[C@H]1O)OC(=O)CCCCCCC/C=C\C/C=C\C/C=C\CC [dLGG, 1,2-di-O-α-linolenoyl-3-O-β-galactopyranosyl-sn-glycerol]
IC25 ([1]; 48 hours, concentration achieving 25% of maximal growth inhibition): 35.86 µg/mL (≈ 46.3 µM)
IC75 ([1]; 48 hours, concentration achieving 75% of maximal growth inhibition): 61.96 µg/mL (≈ 79.9 µM)
IC50 ([1]; Homo sapiens, MKN-45, 48 hours, concentration achieving 50% of maximal growth inhibition): 47.3 µg/mL (≈ 61 µM)
CI (combination index) ([2]; combination with 5FU): 1.58
CI (combination index) ([2]; combination with Epi (epirubicin)): 1.58
